Test results taken from US10874103B2, “Antibacterial composition comprising an acetal or a long-chain alkyl hexitane ether” (TEREOS STARCH & SWEETENERS BELGIUM, priority 2014, dated 2020).
≈ marks a conversion by molar mass, not a printed value.

Legend:
[1] = system: L. monocytogenes (CIP 103575); assay: MIC, 96-well microplate microdilution (Example 4); assay type: cell-based; conditions: 18 h at 37° C.; for MIC: Listeria monocytogenes, CIP103575, Mueller-Hinton medium, read-out: Minimum inhibitory concentration (MIC) L. monocytogenes; for Minimum inhibitory concentration (MIC) L. monocytogenes: Mueller-Hinton medium
Experimental: (§1) The bacteriostatic properties of the derivatives are evaluated by measuring their minimum inhibitory concentration (MIC) on the bacteria tested. Such a measurement is made using the 96-well microplate microdilution method according to the conditions defined below.
(§2) The minimum inhibitory concentrations (MIC) are tested on Gram-positive bacterial strains according to the recommendations of the “Clinical Laboratory Standards Institute” (Clinical-Laboratory-Standards-Institute, 6th ed. Approved standard M100-S17. CLSI, Wayne, Pa., 2007).
(§3) The Gram-positive bacteria studied are as follows: L. monocytogenes (CIP 103575), E. faecalis (ATCC® 29212™) and S. aureus (ATCC® 292213™).
(§4) The cultures studied, freshly isolated (after incubation on a blood agar at 37° C. for 18 h), are taken up in sterile water (10 mL) until a 0.5 McFarland (Mc) suspension i.e. 1 to 2×10^8 CFU (bacteria)/cm^3 is obtained. The bacterial suspension was then diluted to obtain a final concentration of 5×10^5 CFU/cm^3.
(§5) Each well contains an identical quantity of Mueller-Hinton medium (a rich medium for bacterial culture) and bacteria with final 5×10^5 CFU/cm^3.
(§6) The test compounds of interest are solubilized in 2.5% m of ethanol before being diluted to different concentrations two by two.
(§7) On the multiwell plate, a first series has been planned comprising the culture medium without the test compound of interest. It corresponds to the growth control (control well). These controls serve as reference for comparing bacterial growth with that of the subsequent wells comprising different concentrations of the test compound of interest. The second series of wells comprises the mother solution for the test compound of interest for a concentration in the wells of 4 mM. Each series of wells was diluted two by two until the last series for a final concentration of 0.003 mM. Each concentration is duplicated in the same plate. The plate is incubated for 18 h at 37° C. […] If there is antibacterial activity, the bacterial growth is inhibited, which means that no turbidity or bacterial residue is present.
(§8) Tests have been conducted on Gram-positive bacteria with sorbitan derivatives. […] After sterilization the solutions are diluted in water. The results obtained for antimicrobial tests on the 3 bacterial strains L. monocytogenes (CIP 103575), E. faecalis (ATCC® 29212™) and S. aureus (ATCC® 292213™) are summarized in Table 1.

[2] = system: E. faecalis (ATCC® 29212™); assay: MIC, 96-well microplate microdilution (Example 4); assay type: cell-based; conditions: 18 h at 37° C.; for MIC: Enterococcus faecalis, ATCC29212, Mueller-Hinton medium, read-out: Minimum inhibitory concentration (MIC) E. faecalis
Experimental: as §1, §2, §3, §4, §5, §6, §7, §8

[3] = system: S. aureus (ATCC® 292213™); assay: MIC, 96-well microplate microdilution (Example 4); assay type: cell-based; conditions: for MIC: Staphylococcus aureus, ATCC292213, read-out: Minimum inhibitory concentration (MIC) S. aureus; for MIC / Minimum inhibitory concentration (MIC) S. aureus: ATCC 292213, Mueller-Hinton medium, 18 h at 37° C.
Experimental: as §1, §2, §3, §4, §5, §6, §7, §8

[4] = Critical micelle concentration (surfactant properties, Example 6); assay type: physicochemical
Excerpt: The physical, chemical and antimicrobial properties for the best products synthesized have been tested. These analyses show the different surfactant profiles, and the minimum inhibitory concentrations (MIC) for each compound on Gram-positive bacteria. The best surfactant and antimicrobial results are compared in Table 3.

[5] = system: L. monocytogenes (CIP 103575); assay: MBC, bacterial count from clear wells reseeded on agar (Example 5); assay type: cell-based
Experimental: (§9) To determine whether the agents tested are bactericidal, the minimum bactericidal concentration (MBC) is determined. The MBC corresponds to the concentration leaving a number of bacterial survivors of <4 log. For this, a bacterial count is run from clear wells or without bacterial residue (C≤MIC). To do this, a dilution to 1/100 was conducted with the two wells with the same concentration before seeding on a blood agar using the Spiral technique. After 24 h of incubation at 37° C., the visual count allowed determination of the minimum concentration from which there is no bacterial growth.
(§10) To determine the bactericidal effect of compounds presenting bacteriostatic properties, the wells no longer presenting turbidity were reseeded on agar.

[6] = system: E. faecalis (ATCC® 29212™); assay: as above; assay type: cell-based
Experimental: as §9, §10

[7] = system: L. monocytogenes (CIP 103575), E. faecalis (ATCC® 29212™) and S. aureus (ATCC® 292213™); assay: MIC microdilution, statements for all three Gram-positive strains together; assay type: cell-based
Experimental: as §1, §2, §3, §4, §5, §6
On the multiwell plate, a first series has been planned comprising the culture medium without the test compound of interest. […]

Work on `CCCCCCOCC(O)[C@H]1OCC(O)C1O` (stereo partly drawn) [Example 2b, Hexyl-1,4-D-sorbitan] yielded an MIC [1] greater than 4 mM, an MIC [2] greater than 4 mM and an MIC [3] greater than 4 mM.

For `CCCCCCCCCCCC(=O)OCC(O)CO` (stereo not drawn) [Monolaurin (ML), monolaurin, reference compound], the “Minimum inhibitory concentration (MIC) L. monocytogenes” value [1] was 0.04 mM (≈ 11 µg/mL) and the “Minimum inhibitory concentration (MIC) S. aureus” value [3] was 0.04 mM (≈ 11 µg/mL).

`CCCCCCCCCCOCC(O)[C@H]1OCC(O)C1O` (stereo partly drawn) [Example 2d, Decyl-1,4-d-sorbitan] showed an MIC [1] greater than 4 mM, an MIC [2] greater than 4 mM and an MIC [3] greater than 4 mM.

Molecule `CCCCCCCC1OCC([C@H]2OCC(O)C2O)O1` (stereo partly drawn) [Example 1c, 5,6-O-Octylidene-1,4-D-sorbitan 1c and 1c′ and 3,5-O-octylidene-1,4-D-sorbitan 1c″ and 1c′″] has an MIC [1] greater than 4 mM, an MIC [2] greater than 4 mM and an MIC [3] greater than 4 mM.

`CCCCCOCC(O)[C@H]1OCC(O)C1O` (stereo partly drawn) [Example 2a, Pentyl-1,4-D-sorbitan] gave an MIC [1] greater than 4 mM, an MIC [2] greater than 4 mM and an MIC [3] greater than 4 mM.

In the case of “5,6-O-Dodecylidene-1,4-D-sorbitan 1e and 1e′ and 3,5-O-dodecylidene-1,4-D-sorbitan 1e′ and 1e′″ [Example 1e]”, the “CMC (critical micelle concentration)” value [4] is reported as 0.034 mM, the “bactericidal concentration for L. monocytogenes” value [5] is reported as 0.03 mM and the “minimum bactericidal concentration (MBC) L. monocytogenes” value ([5]; Table 2, reseeded on agar) is reported as 0.03 mM. The “bactericidal concentration for E. faecalis” value [6] was 0.03 mM, the “minimum bactericidal concentration (MBC) E. faecalis” value ([6]; Table 2, reseeded on agar) was 0.03 mM and the “Minimum inhibitory concentration (MIC) L. monocytogenes” value [1] was 0.03 mM. For the same molecule, the “Minimum inhibitory concentration (MIC) E. faecalis” value ([2]; Mueller-Hinton medium) was 0.03 mM, the “bacteriostatic concentration for S. aureus” value [3] was 0.12 mM and the “Minimum inhibitory concentration (MIC) S. aureus” value [3] was 0.12 mM.

With `CCCCCCCCOCC(O)[C@H]1OCC(O)C1O` (stereo partly drawn) [Example 2c, Octyl-1,4-D-sorbitan] the MIC [1] was greater than 4 mM, the MIC [2] was greater than 4 mM and the MIC [3] was greater than 4 mM.

`CCCCCC1OCC([C@H]2OCC(O)C2O)O1` (stereo partly drawn) [Example 1b, 5,6-O-Hexylidene-1,4-D-sorbitan 1b and 1b′ and 3,5-O-hexylidene-1,4-D-sorbitan 1b″ and 1b′″] gave an MIC [1] greater than 4 mM, an MIC [2] greater than 4 mM and an MIC [3] greater than 4 mM.

For `CCCCCCCCCCCC=O` [dodecanal, reference compound], the “MIC / inhibitory concentration on the bacterial strains studied” value [7] was greater than 4 mM.

Molecule `CCCCC1OCC([C@H]2OCC(O)C2O)O1` (stereo partly drawn) [Example 1a, 5,6-O-Pentylidene-1,4-D-sorbitan 1a and 1a′ and 3,5-O-pentylidene-1,4-D-sorbitan 1a″ and 1a′″] has an MIC [1] greater than 4 mM, an MIC [2] greater than 4 mM and an MIC [3] greater than 4 mM.

With `CCCCCCCCCC1OCC([C@H]2OCC(O)C2O)O1` (stereo partly drawn) [Example 1d, 5,6-O-Decylidene-1,4-D-sorbitan 1d and 1d′ and 3,5-O-decylidene-1,4-D-sorbitan 1d′ and 1d′″] the MIC [1] was greater than 4 mM, the MIC [2] was greater than 4 mM and the MIC [3] was greater than 4 mM.
